Test results: PMC2364086, “Metabolism and growth inhibition of four retinoids in head and neck squamous normal and malignant cells” (British Journal of Cancer, 2001)

Key:
CYP26 = test system: CYP26; parameters: method as in Sonneveld et al, 1998; conditions: ref Sonneveld et al, 1998; cited from earlier work
UM-SCC-35R = test: Retinoid metabolism / turnover rate, HPLC; parameters: Metabolites Medium: dose or concentration left out as unconfirmed; conditions: for Metabolism (turnover rate) Mean: 24 h
From the text: (§1) Retinoic acid is an active metabolite of retinol (ROL, vitamin A) that plays an important role in growth and differentiation of a variety of cell types (Gudas et al, 1994). […] This is a whitish and reddish plaque in the epithe- lial lining in the oral cavity that have a relatively high risk to become malignant. […] One impor- tant route of ATRA metabolism consists of hydroxylation at posi- tion 4 of the cyclohexenyl ring to form 4-hydroxy-RA, which is readily oxidized to 4-oxo-RA. Other metabolic pathways of ATRA include isomerization, decarboxylation and glucuronidation processes (Rockley et al, 1980; Roberts et al, 1980; Sass et al, 1994). In vitro, 4-hydroxylation of ATRA is mediated by a cytochrome P450 (CYP)-dependent mono-oxogenase system that requires NAPDH and oxygen (Roberts et al, 1980). The present study was undertaken to investigate to what extent a panel of retinoids, including 13cRA, is able to inhibit growth of HNSCC cells and cultures of normal oral keratinocytes (OKC). […] After binding of retinoids to retinoic acid receptors (RARs and RXRs) dimers are formed that are able to regulate the expression of genes involved in growth and differentiation. We compared the metabolism and level of growth inhibition of 13cRA with that of ATRA, 9cRA and retinol in four HNSCC cell lines and normal oral keratinocyte cultures (OKC).

[1] = test system: normal oral keratinocyte cultures (OKC); test: Retinoid metabolism / turnover rate, HPLC; parameters: Metabolites Medium: dose or concentration left out as unconfirmed
From the text: as §1

UM-SCC-14C = test: Retinoid metabolism / turnover rate, HPLC; parameters: Metabolites Medium: dose or concentration left out as unconfirmed; conditions: for Metabolites Medium: UM-SCC-14C medium; for Metabolism (turnover rate) Mean: 24 h
From the text: as §1

UM-SCC-22A = test: Retinoid metabolism / turnover rate, HPLC; parameters: Metabolites Medium: dose or concentration left out as unconfirmed; conditions: for Metabolites Medium: UM-SCC-22A medium; for Metabolism (turnover rate) Mean: 24 h
From the text: as §1

UM-SCC-35 = test: Retinoid metabolism / turnover rate, HPLC; conditions: for Metabolites Pellet: UM-SCC-35 cell pellet
From the text: as §1

oral leukoplakia = conditions: ref Koch, 1978; cited from earlier work
[2] = OKC, exposed, decrease in medium and cells between 4 and 24 h
[3] = 72 h exposure, 1 mM retinoid, HPLC

With `CC1=C(/C=C/C(C)=C\C=C\C(C)=C\C(=O)O)C(C)(C)CCC1` [9cRA, 9-cis-RA] as the compound, how does the “Metabolism by CYP26” value (CYP26) read?
The value was “can not metabolize”.

What about the “Metabolites Pellet” value (UM-SCC-35R; UM-SCC-35R cell pellet, 72 h exposure, HPLC) of the same compound?
Its value is “b (between 10 and 15 min)”.

And the “Metabolites Medium” value (UM-SCC-35R; UM-SCC-35R medium, 72 h exposure, HPLC)?
The value was “a,b”.

What about the “Isomerization to other RA isomers” value ([1]; OKC, ATRA to 13cRA, 13cRA to ATRA, 9cRA to ATRA and 13cRA) of the same compound?
Its value is “up to 5%”.

And the “Metabolism (turnover rate) Mean” value [1, 2]?
Its value is 12.0 pmol per mg protein per hour.

What about the “Metabolites Medium” value (UM-SCC-14C; 72 h exposure, HPLC) of the same compound?
Its value is “a,b”.

What about the “Isomerization to other RA isomers” value (UM-SCC-14C; UM-SCC-14C, ATRA to 13cRA, 13cRA to ATRA, 9cRA to ATRA and 13cRA) of the same compound?
Its value is “up to 5%”.

And the “Metabolites Medium” value (UM-SCC-22A; 72 h exposure, HPLC)?
Its value is “a,b”.

And the “Isomerization to other RA isomers” value (UM-SCC-22A; UM-SCC-22A, ATRA to 13cRA, 13cRA to ATRA, 9cRA to ATRA and 13cRA)?
Its value is “up to 5%”.

And the “Metabolites Pellet” value (UM-SCC-35; [3])?
Its value is “b (between 10 and 15 min)”.

What about the “Metabolites Medium” value (UM-SCC-35; UM-SCC-35 medium, 72 h exposure, 1 mM retinoid, HPLC) of the same compound?
Its value is “a,b,c”.

Which “Metabolism by CYP26” value (CYP26) does the source give for `CC1=C(/C=C/C(C)=C/C=C/C(C)=C\C(=O)O)C(C)(C)CCC1` [13cRA, 13-cis-retinoic acid] here?
The value was “can not metabolize”.

And the “Metabolism (turnover rate) Mean” value (UM-SCC-35R; human, 1 µM)?
Its value is 6.9 pmol per mg protein per hour.

What about the “Metabolites Pellet” value (UM-SCC-35R; human, 72 h, 1 µM) of the same compound?
Its value is “b,d2”.

What about the “Isomerization to other RA isomers” value ([1]; human, 1 µM) of the same compound?
The value was “up to 10%”.

And the “Metabolism (turnover rate) Mean” value ([1]; human, 24 h, 1 µM)?
The value was 38.8 pmol per mg protein per hour.

What about the “Metabolites Pellet” value ([1]; human, 72 h, 1 µM) of the same compound?
Its value is “d2”.

And the “Isomerization to other RA isomers” value (UM-SCC-14C; human, 1 µM)?
Its value is “up to 10%”.

And the “Metabolism (turnover rate) Mean” value (UM-SCC-14C; human, 1 µM)?
Its value is 78.7 pmol per mg protein per hour.

What about the “Metabolites Pellet” value (UM-SCC-14C; human, 72 h, 1 µM) of the same compound?
The value was “d2”.

What about the “Isomerization to other RA isomers” value (UM-SCC-22A; human, 1 µM) of the same compound?
Its value is “up to 10%”.

What about the “Metabolism (turnover rate) Mean” value (UM-SCC-22A; human, 1 µM) of the same compound?
The value was 154.1 pmol per mg protein per hour.

And the “Metabolites Pellet” value (UM-SCC-22A; human, 72 h, 1 µM)?
Its value is “d2”.

And the “Metabolism (turnover rate) Mean” value (UM-SCC-35; human, 24 h, 1 µM)?
Its value is 949.5 pmol per mg protein per hour.

For `CC1=C(/C=C/C(C)=C/C=C/C(C)=C/C(=O)O)C(C)(C)CCC1` [ATRA, all-trans-retinoic acid], which “Metabolism by CYP26” value (CYP26) is on record?
The value was “highly substrate (ATRA) specific”.

And the “Metabolism (turnover rate) Mean” value (UM-SCC-35R; human, 1 µM)?
The value was 52.7 pmol per mg protein per hour.

And the “Isomerization to other RA isomers” value ([1]; human, 1 µM)?
The value was “up to 10%”.

What about the “Metabolism (turnover rate) Mean” value ([1]; human, 24 h, 1 µM) of the same compound?
Its value is 14.8 pmol per mg protein per hour.

And the “Isomerization to other RA isomers” value (UM-SCC-14C; human, 1 µM)?
Its value is “up to 10%”.

What about the “Metabolism (turnover rate) Mean” value (UM-SCC-14C; human, 1 µM) of the same compound?
Its value is 13.3 pmol per mg protein per hour.

What about the “Isomerization to other RA isomers” value (UM-SCC-22A; human, 1 µM) of the same compound?
The value was “up to 10%”.

What about the “Metabolism (turnover rate) Mean” value (UM-SCC-22A; human, 1 µM) of the same compound?
The value was 104.8 pmol per mg protein per hour.

What about the Major metabolite (UM-SCC-35; human, 24 h, 1 µM) of the same compound?
Its Major metabolite is 4-OH-RA.

And the “Metabolism (turnover rate) Mean” value (UM-SCC-35; human, 24 h, 1 µM)?
The value was 1,016.0 pmol per mg protein per hour.

And the “Proportion of leukoplakia patients in whom active” value (oral leukoplakia)?
The value was 59%.

Which “Formation of other retinoids after exposure” value (UM-SCC-35R; UM-SCC-35R) does the source give for `CC1=C(/C=C/C(C)=C/C=C/C(C)=C/CO)C(C)(C)CCC1` [ROL, retinol] here?
The value was “no or very small amounts of other retinoids”.

What about the “Metabolites Pellet” value ([1]; OKC cell pellet, 72 h exposure, HPLC) of the same compound?
The value was “d1”.

And the “Metabolites Medium” value ([1]; OKC medium, 72 h exposure, HPLC)?
The value was “d1”.

What about the “Metabolism (turnover rate) Mean” value [1, 2] of the same compound?
The value was 98.7 pmol per mg protein per hour.

What about the “Formation of ATRA after exposure” value (UM-SCC-14C; UM-SCC-14C) of the same compound?
Its value is “relatively high formation of ATRA”.

What about the “Metabolites Pellet” value (UM-SCC-14C; UM-SCC-14C cell pellet, 72 h exposure, HPLC) of the same compound?
Its value is “d1”.

And the “Metabolites Medium” value (UM-SCC-14C; 72 h exposure, HPLC)?
The value was “d1”.

And the “Metabolites Pellet” value (UM-SCC-22A; UM-SCC-22A cell pellet, 72 h exposure, HPLC)?
The value was “d1”.

What about the “Metabolites Medium” value (UM-SCC-22A; 72 h exposure, HPLC) of the same compound?
The value was “d1”.

And the “Formation of other retinoids after exposure” value (UM-SCC-35; UM-SCC-35)?
Its value is “no or very small amounts of other retinoids”.

And the “Metabolites Pellet” value (UM-SCC-35; [3])?
The value was “c1”.
